Reference: patent publication US12077503B2, “Substituted cyclic amides and their use as herbicides” (FMC CORPORATION, priority 2015, dated 2024)

Tests used:
Assay type in all cases: in vivo
[1] = tested on: ducksalad (Heteranthera limosa); assay: Test B flooded paddy test; conditions: Flood, 250 g ai/ha
Outline: (§1)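 Flooding to 3 cm over soil accompanied treatment, which consisted of adding compound to the standing water around 2-leaf plants; depth was then maintained. Visual assessment versus controls followed at 13 to 15 d (scale 0–100, 0 meaning no effect).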

[2] = tested on: sedge, umbrella (small-flower umbrella sedge, Cyperus difformis); assay: Test B flooded paddy test; conditions: 250 g ai/ha, Flood, 0 to 100 scale where 0 is no effect and 100 is complete control
Outline: as §1

[3] = tested on: barnyardgrass (Echinochloa crus-galli); assay: Test B flooded paddy test; conditions: Flood, 250 g ai/ha
Outline: as §1

rice (Oryra sativa) = assay: Test B flooded paddy test; conditions: Flood, 250 g ai/ha
Outline: as §1

Kochia (Kochia scoparia) [4] = assay: Test A preemergence
Outline: (§2)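 Seeds sprayed preemergence with a directed soil spray, or plants at 2 to 10 cm height and one- to two-leaf stage sprayed postemergence, with test chemicals in a non-phytotoxic solvent mixture containing surfactant, in loam soil–sand blend. Injury rated visually against untreated controls after about 10 d in greenhouse, 0 (no effect) to 100 (complete control).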

[5] = tested on: ryegrass, Italian (Italian ryegrass, Lolium multiflorum); assay: Test A preemergence
Outline: as §2

[6] = tested on: giant foxtail (Setaria faberii); assay: Test A preemergence
Outline: as §2

[7] = tested on: ragweed (common ragweed, Ambrosia elatior); assay: Test A preemergence
Outline: as §2

[8] = tested on: barnyardgrass (Echinochloa crus-galli); assay: Test A preemergence
Outline: as §2

[9] = tested on: pigweed (Amaranthus retroflexus); assay: Test A preemergence
Kochia (Kochia scoparia) [10] = assay: Test A postemergence
Outline: as §2

[11] = tested on: ryegrass, Italian (Italian ryegrass, Lolium multiflorum); assay: Test A postemergence
Outline: as §2

[12] = tested on: giant foxtail (Setaria faberii); assay: Test A postemergence
Outline: as §2

[13] = tested on: ragweed (common ragweed, Ambrosia elatior); assay: Test A postemergence
Outline: as §2

[14] = tested on: barnyardgrass (Echinochloa crus-galli); assay: Test A postemergence
Outline: as §2

corn (Zea mays) = assay: Test A postemergence
Outline: as §2

[15] = tested on: pigweed (Amaranthus retroflexus); assay: Test A postemergence
Outline: as §2

[16] = tested on: blackgrass (Alopecurus myosuroides); assay: Test A postemergence
Outline: as §2

[17] = tested on: Galium (catchweed bedstraw, Galium aparine); assay: Test A postemergence
Outline: as §2

[18] = tested on: wheat (Triticum aestivum); assay: Test A postemergence
Outline: as §2

[19] = scale of 0 to 100 where 0 is no effect and 100 is complete control
[20] = 125 g ai/ha, Preemergence, visual injury rating after approximately 10 d
[21] = 500 g ai/ha, preemergence, visual injury rating about 10 d after treatment, 0 to 100 scale (0 no effect, 100 complete control)
[22] = 125 g ai/ha, Postemergence, visual injury after approximately 10 d, 0 to 100 scale where 0 is no effect and 100 is complete control
[23] = 0 to 100 scale where 0 is no effect and 100 is complete control, 13 to 15 d
[24] = 125 g ai/ha, preemergence, 0 to 100 scale (0 no effect, 100 complete control)
[25] = Preemergence, 500 g ai/ha, 0 is no effect, 100 is complete control
[26] = 500 g ai/ha, postemergence, 0 to 100 scale, 0 no effect, 100 complete control
[27] = Postemergence, 125 g ai/ha, visual injury, 0 to 100 scale (0 no effect, 100 complete control), approx. 10 d

Cc1c(F)cccc1NC(=O)[C@H]1C(=O)NC[C@@H]1c1ccc2c(c1)OCO2 (stereo in doubt) [Compound 989]
Ducksalad plant response rating [1, 19]: 100
Sedge, Umbrella plant response rating [2]: 0
Barnyardgrass plant response rating [3, 19]: 15
Rice plant response rating (rice (Oryra sativa); [19]): 0
Kochia plant response rating (0 to 100 scale, 0 is no effect, 100 is complete control) (Kochia (Kochia scoparia) [4]; [20]): 0
Kochia plant response rating (Kochia (Kochia scoparia) [4]; [21]): 90
Ryegrass, Italian plant response rating (0 to 100 scale, 0 is no effect, 100 is complete control) [5, 20]: 0
Ryegrass, Italian plant response rating [5, 21]: 0
Foxtail, Giant plant response rating (0 to 100 scale, 0 is no effect, 100 is complete control) [6, 20]: 70
Foxtail, Giant plant response rating [6, 21]: 90
Ragweed plant response rating (0 to 100 scale, 0 is no effect, 100 is complete control) [7, 20]: 0
Ragweed plant response rating [7, 21]: 40
Barnyardgrass plant response rating (0 to 100 scale, 0 is no effect, 100 is complete control) [8, 20]: 70
Barnyardgrass plant response rating [8, 21]: 90
Pigweed plant response rating (0 to 100 scale, 0 is no effect, 100 is complete control) [9, 20]: 0
Pigweed plant response rating [9, 21]: 0
Plant response rating, Kochia (Kochia (Kochia scoparia) [10]; [22]): 0
Plant response rating, Ryegrass, Italian [11, 22]: 0
Plant response rating, Foxtail, Giant [12, 22]: 50
Plant response rating, Ragweed [13, 22]: 0
Plant response rating, Barnyardgrass [14, 22]: 80
Plant response rating, Corn (corn (Zea mays); [22]): 0
Plant response rating, Pigweed [15, 22]: 0
Plant response rating, Blackgrass [16, 22]: 0
Plant response rating, Galium [17, 22]: 20
Plant response rating, Wheat [18, 22]: 0

Cc1cccc(C2CNC(=O)C2C(=O)Nc2ccccc2F)c1 (racemic) [Compound 372]
Plant response rating, Ducksalad [1, 23]: 100
Plant response rating, Sedge, Umbrella ([2]; 13 to 15 d): 0
Plant response rating, Barnyardgrass [3, 23]: 60
Plant response rating, Rice (rice (Oryra sativa); [23]): 35
Plant response rating, Kochia (Kochia (Kochia scoparia) [4]; [24]): 0
Kochia plant response rating (0 to 100 scale) (Kochia (Kochia scoparia) [4]; [25]): 0
Plant response rating, Ryegrass, Italian [5, 24]: 0
Ryegrass, Italian plant response rating (0 to 100 scale) [5, 25]: 30
Plant response rating, Foxtail, Giant [6, 24]: 80
Foxtail, Giant plant response rating (0 to 100 scale) [6, 25]: 90
Plant response rating, Ragweed [7, 24]: 0
Ragweed plant response rating (0 to 100 scale) [7, 25]: 30
Plant response rating, Barnyardgrass [8, 24]: 90
Barnyardgrass plant response rating (0 to 100 scale) [8, 25]: 90
Plant response rating, Pigweed [9, 24]: 0
Pigweed plant response rating (0 to 100 scale) [9, 25]: 50
Plant response rating, Kochia (Kochia (Kochia scoparia) [10]; [26]): 40
Plant response rating, Kochia (Kochia (Kochia scoparia) [10]; [27]): 0
Plant response rating, Ryegrass, Italian [11, 26]: 40
Plant response rating, Ryegrass, Italian [11, 27]: 20
Plant response rating, Foxtail, Giant [12, 26]: 70
Plant response rating, Foxtail, Giant [12, 27]: 50
Plant response rating, Ragweed [13, 26]: 0
Plant response rating, Ragweed [13, 27]: 0
Plant response rating, Barnyardgrass [14, 26]: 80
Plant response rating, Barnyardgrass [14, 27]: 80
Plant response rating, Corn (corn (Zea mays); [26]): 20
Plant response rating, Corn (corn (Zea mays); [27]): 0
Plant response rating, Pigweed [15, 26]: 30
Plant response rating, Pigweed [15, 27]: 20
Plant response rating, Blackgrass [16, 26]: 30
Plant response rating, Blackgrass [16, 27]: 20
Plant response rating, Galium [17, 26]: 20
Plant response rating, Galium [17, 27]: 0
Plant response rating, Wheat [18, 26]: 20
Plant response rating, Wheat [18, 27]: 0
